One assay concerns the target T1, Human HDAC10 (Homo sapiens, UniProt Q969S8).
T1 construct: Human HDAC10 (a.a. 1-481); GST (N); His (C); host or cells: baculovirus expression system
T1 sequence (Q969S8 1-481): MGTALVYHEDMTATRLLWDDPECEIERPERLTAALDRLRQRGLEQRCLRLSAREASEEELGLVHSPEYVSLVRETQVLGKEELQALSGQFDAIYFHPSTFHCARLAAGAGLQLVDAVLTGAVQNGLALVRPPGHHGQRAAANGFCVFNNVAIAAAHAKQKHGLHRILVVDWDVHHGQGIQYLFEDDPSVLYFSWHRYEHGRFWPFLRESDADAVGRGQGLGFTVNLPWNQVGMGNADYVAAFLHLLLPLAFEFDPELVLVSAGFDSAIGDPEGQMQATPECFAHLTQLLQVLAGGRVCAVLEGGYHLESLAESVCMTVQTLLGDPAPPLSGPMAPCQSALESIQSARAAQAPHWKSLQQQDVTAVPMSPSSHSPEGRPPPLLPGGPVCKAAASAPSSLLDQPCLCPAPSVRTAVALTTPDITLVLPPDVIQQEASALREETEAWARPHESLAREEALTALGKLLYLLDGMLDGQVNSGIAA
Briefly: HDAC10 biochemical assay, AMC-labeled peptide substrate. To be noted: read-out: HDAC Isoform IC50 (nM) 10. The method, boiled down:
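Baculovirus-expressed GST/His-tagged human HDAC10 (aa 1-481), 12 ng/ul, incubated with 50 μM RHKK(Ac)AMC in Tris pH 8.0 buffer with BSA and 1% DMSO, 2 h at 30 °C. Developer then releases AMC, read at 360/460 nm.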

The test system of assay [1] is acetylated histone H3 in A549 lung adenocarcinoma cells. Briefly: Acetylated histone H3 in-cell western (ICW) assay. Type of assay: cell-based. The following applies: Homo sapiens, 16 h exposure, relative to 40 μM Trichostatin A positive control, read-out: EC50 Ac-histone H3, A549 cells. The procedure, abridged: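 A549 cells exposed to compound for 16 h at 37 °C (0.4% DMSO final), then fixed and immunostained for acetylated α-tubulin or histone H3 with near-infrared detection, signal normalised to cell stain. Response expressed relative to DMSO controls and to 40 μM scriptaid (tubulin) or 40 μM TSA (H3); EC50 by constrained nonlinear regression.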

The target in another assay is T2, Human HDAC11 (Homo sapiens, UniProt Q96DB2).
T2 construct: Human HDAC11 (full length); His (N); host or cells: baculovirus expression system
T2 sequence (Q96DB2 1-347): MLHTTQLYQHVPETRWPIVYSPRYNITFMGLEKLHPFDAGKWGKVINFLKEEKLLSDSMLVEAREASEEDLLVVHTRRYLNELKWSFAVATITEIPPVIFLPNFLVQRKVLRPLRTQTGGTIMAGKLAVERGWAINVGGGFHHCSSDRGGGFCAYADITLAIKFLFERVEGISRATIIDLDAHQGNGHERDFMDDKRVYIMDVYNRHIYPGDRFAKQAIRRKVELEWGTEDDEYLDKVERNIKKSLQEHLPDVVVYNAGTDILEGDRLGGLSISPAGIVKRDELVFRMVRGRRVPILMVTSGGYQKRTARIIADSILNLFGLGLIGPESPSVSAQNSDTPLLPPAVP
Briefly: HDAC11 biochemical assay, class IIa-specific substrate. The following applies: read-out: HDAC Isoform IC50 (nM) 11. The procedure, abridged: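 Full-length N-His human HDAC11 from baculovirus, 5 ng/μl, incubated with 50 μM Boc-Lys(trifluoroacetyl)-AMC for 30 min at 30 °C. Buffer: 50 mM Tris-HCl pH 8.0, 137 mM NaCl, 2.7 mM KCl, 1 mM MgCl2, 1 mg/mL BSA, 1% DMSO. Developer releases AMC; fluorescence read at 360/460 nm.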

The source of these data is US20210038607A1, “OXADIAZOLYLTHIOPHENE DERIVATIVES USEFUL AS HISTONE DEACETYLASE INHIBITORS” (Karus Therapeutics Limited, priority 2018, published 2021).

The structures appear in SMILES notation. pEC50: −log10 of the molar value.

A word on the IC50: it is the midpoint of a concentration-inhibition curve. A word on the pEC50: it is −log10 of the EC50, conventionally taken in molar units.

In the case of `COC1(C(F)(F)F)CN(C(=O)c2cnnc(N(Cc3ccc(-c4noc(C(F)(F)F)n4)s3)c3cnccn3)c2)C1` [Example GL, 5-[3-Methoxy-3-(trifluoromethyl)azetidine-1-carbonyl]-N-(pyrazin-2-yl)-N-({5-[5-(trifluoromethyl)-1,2,4-oxadiazol-3-yl]thiophen-2-yl}methyl)pyridazin-3-amine], the IC50 at Human HDAC10 and on Human HDAC11 was greater than 10000 nM each time. Also, the negative-log EC50 (pEC50) in assay [1] is no more than 5.00.
As to `O=C(c1nccnc1N(Cc1ccc(-c2noc(C(F)(F)F)n2)s1)c1cnccn1)N1CCC1` [Example GP, 3-(Azetidine-1-carbonyl)-N-(pyrazin-2-yl)-N-({5-[5-(trifluoromethyl)-1,2,4-oxadiazol-3-yl]thiophen-2-yl}methyl)pyrazin-2-amine], the IC50 at Human HDAC10 and on Human HDAC11 was greater than 10000 nM in each case. Further, the negative-log EC50 (pEC50) in assay [1] was no more than 5.00.
